Measurements as given in US20260097037A1, “FUSED RING COMPOUND HAVING GLP-1 RECEPTOR AGONIST EFFECT” (Shionogi & Co., Ltd., priority 2022, published 2026).

Biological target: T1, Human GLP-1 receptor stably expressing cells (hGLP-1R/CHO-K1 cells) (Homo sapiens, UniProt P43220)
T1 construct: expressed in transfected cells
Assay: Measurement of GLP-1 receptor agonist activity (cAMP assay)
Assay type: cell-based
Conditions: for Emax: CHO-K1, maximum effect, cAMP with 2 nM human GLP-1 (7-36) = 100%, DMSO only = 0%, read-out: Emax; for EC50: increase in cAMP concentration in hGLP-1R/CHO-K1 cells, 37° C. 1 hour
Method in brief: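 hGLP-1R/CHO-K1 cells (cryopreserved) incubated with compound and forskolin in HBSS with 0.1% BSA, IBMX and RO20-1724, 1 h at 37° C; cAMP read by HTRF. EC50 and Emax from cAMP rise, normalised to 2 nM human GLP-1 (7-36) (100%) and DMSO (0%).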

T1 sequence (P43220 24-463): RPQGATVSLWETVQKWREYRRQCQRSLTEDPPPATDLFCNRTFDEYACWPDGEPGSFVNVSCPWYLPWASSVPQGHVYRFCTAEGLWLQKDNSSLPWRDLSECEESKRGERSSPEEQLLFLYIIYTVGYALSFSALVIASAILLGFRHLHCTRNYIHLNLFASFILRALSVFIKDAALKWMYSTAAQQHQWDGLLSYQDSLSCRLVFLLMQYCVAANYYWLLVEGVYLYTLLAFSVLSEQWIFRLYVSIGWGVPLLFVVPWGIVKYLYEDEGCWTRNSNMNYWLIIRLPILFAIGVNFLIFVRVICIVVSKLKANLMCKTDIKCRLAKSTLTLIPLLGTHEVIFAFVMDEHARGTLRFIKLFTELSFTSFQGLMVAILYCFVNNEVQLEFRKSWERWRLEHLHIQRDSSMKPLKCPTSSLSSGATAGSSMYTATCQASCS

| Emax [%] | EC50 [nM] | Structure (SMILES) |
| --- | --- | --- |
| 120 | 0.119 | C[C@H]1c2nc(OCc3cc(F)c(Cl)cc3F)c(C#N)cc2CCN1Cc1nc2c(Cl)cc(C(=O)O)cc2n1C[C@@H]1CCO1 [Compound I-188] |
| 124 | 0.222 | C[C@H]1c2nc(OCc3ccc(Cl)cc3)c(C#N)cc2CCN1Cc1nc2c(Cl)cc(C(=O)O)cc2n1C[C@@H]1CCO1 [Compound I-189] |
| 93.3 | 4.29 | C[C@H]1c2nc(OCc3ccc(Cl)cc3F)c(C(F)(F)F)cc2CCN1Cc1nc2c(-c3cccnc3)cc(C(=O)O)cc2n1C[C@@H]1CCO1 [Compound I-190] |
| 114 | 0.266 | C[C@H]1c2nc(NCc3ncc(Cl)cc3F)c(C(F)(F)F)cc2CCN1Cc1nc2c(F)cc(C(=O)O)cc2n1C[C@@H]1CCO1 [Compound I-191] |
| 110 | 0.211 | C[C@H]1c2nc(NCc3ccc(C#N)cc3F)c(C(F)(F)F)cc2CCN1Cc1nc2c(F)cc(C(=O)O)cc2n1C[C@@H]1CCO1 [Compound I-193] |
| 103 | 0.137 | C[C@H]1c2nc(NCc3ccc(C#N)cc3F)c(C(F)(F)F)cc2CCN1Cc1nc2c(Cl)cc(C(=O)O)cc2n1C[C@@H]1CCO1 [Compound I-194] |
| 123 | 0.0514 | COc1cc(C(=O)O)cc2c1nc(CN1CCc3cc(C(F)(F)F)c(NCc4ccc(C#N)cc4F)nc3[C@@H]1C)n2C[C@@H]1CCO1 [Compound I-195] |
| 108 | 0.611 | C[C@H]1c2nc(NCc3ccc(Cl)cn3)c(C(F)(F)F)cc2CCN1Cc1nc2c(F)cc(C(=O)O)cc2n1C[C@@H]1CCO1 [Compound I-196] |
| 111 | 0.345 | C[C@H]1c2nc(NCc3ccc(Cl)cn3)c(C(F)(F)F)cc2CCN1Cc1nc2c(Cl)cc(C(=O)O)cc2n1C[C@@H]1CCO1 [Compound I-197] |
